Experiments:
H1299/PmR cells = test: MTT assay, viability of pemetrexed-resistant H1299/PmR cells; assay type: cell-based; settings: Homo sapiens, NCI-H1299, 72 h, three days, read-out: IC50 against the viability
Text: Human lung cancer cell lines (A549, H1299, H1993, H1944, H226B, H226Br, H460, H522, HCC15, and PC9), a diploid human lung fibroblast cell line (Wi38), and the Lewis lung carcinoma (LLC) cell line were purchased from the American Type Culture Collection (ATCC, Manassas, VA, USA) or kindly provided by Dr. John V. Heymach (MD Anderson Cancer Center, Houston, TX, USA). Human retinal pigment epithelial (RPE) cells were kindly provided by Dr. Jeong Hun Kim (College of Medicine, Seoul National University, Seoul, Republic of Korea). HT-22 cells were provided by Dr. Dong Gyu Jo (College of Pharmacy, Sungkyunkwan University, Suwon, Republic of Korea). Lung cancer cells were cultured in RPMI 1640 medium supplemented with 10% fetal bovine serum (FBS) and antibiotics (Welgene, Gyeongsan-si, Republic of Korea). LLC, HT-22, and Wi38 cells were maintained in DMEM supplemented with 10% FBS and antibiotics. RPE cells were maintained in DMEM/F12 supplemented with 10% FBS and antibiotics. […]
Cells were seeded into 96-well plates at a density of 1-2 × 10^3 cells/well and incubated for 24 h. […] The formazan products were dissolved in dimethyl sulfoxide (DMSO), and the absorbance was measured at 570 nm. […]

[1] = system: Kras^G12D/+-driven lung tumors; test: Mutant Kras-driven lung tumorigenesis model; assay type: in vivo, Kras^G12D/+ transgenic mice
Experimental: All animal experiments were performed according to protocols approved by the Seoul National University Institutional Animal Care and Use Committee. Mice were fed standard mouse chow and water ad libitum and housed in temperature- and humidity-controlled facilities with a 12-h light/12-h dark cycle. For xenograft experiments, H1944 and A549 cells (1×10^6 cells/spot, diluted in equal amounts of PBS and Matrigel) were subcutaneously injected into the right flank of 6-week-old non-obese diabetic-severe combined immunodeficiency (NOD/SCID) mice. After the tumor volume reached 50-150 mm^3, the mice were randomly grouped and treated with vehicle [10% DMSO in 60% polyethylene glycol (PEG) 400 solution] or LL6 (80 mg/kg) 6 days per week for 2 weeks. Tumor growth was determined by measuring the short and long diameters of the tumor with a caliper, and body weight was measured once or twice per week to monitor toxicity. Additionally, to evaluate the effect of LL6 on mutant Kras-driven lung tumorigenesis, 2-month-old Kras^G12D/+ transgenic mice were randomized and treated with vehicle or LL6 (80 mg/kg) for 8 weeks. The mice were euthanized, and tumor formation was evaluated and compared with that of the vehicle-treated control group. Microscopic evaluations of the H&E-stained lung tissue were also performed to measure mean tumor number (N) and volume (V) in a blinded fashion. The number and size of tumors were calculated in five sections uniformly distributed throughout each lung. In both animal experiments, the tumor volume and burden of each sample were calculated using the following formulas: Tumor volume (mm^3) = (short diameter)^2 × (long diameter) × 0.5; Tumor burden (mm^3) = number of tumors × the average of tumor volume.
Sections derived from formalin-fixed and paraffin-embedded murine lung tissues were deparaffinized by incubation overnight at 65 °C, followed by rehydration in sequential xylene and ethanol rinses. After incubation with hydrogen peroxide, the slides were washed with PBS and then incubated with 0.3% Triton X-100. The sections were incubated with blocking solution (Dako Protein Block, Dako, Glostrup, Denmark) for 30 min at room temperature after washing with PBS. The sections were further incubated with primary antibodies (pAXL, pIGF-1R, and pSrc, diluted at 1:200) overnight at 4 °C, washed with PBS several times, incubated with the corresponding biotinylated secondary antibodies (diluted at 1:500), and then washed with PBS multiple times. After adding avidin-biotin complexes (Vector Laboratories, Burlingame, CA, USA), the sections were visualized using diaminobenzidine detection reagent (Enzo Life Sciences, Farmingdale, NY, USA) and mounted with a mounting solution (Vector Laboratories).

[2] = biological target: T1, ABL1(E255K)-phosphorylated (Homo sapiens, UniProt P00519, E255K); test: KINOMEscan competition binding assay; settings: LL6 at 10 μM; read-out: Percent Control
T1 construct: purchased DiscoverX KINOMEscan
Experimental: (§1) To briefly summarize, Kd was measured by a competition binding assay that quantitatively measures the ability of a compound to compete with an immobilized ligand. […] Dose response curves of 11 points are obtained for Kd values, which are measured in duplicate. See more details in the cited references [39]-[42] and see also at www.discoverx.com.

[3] = biological target: T2, ABL1(T315I)-phosphorylated (Homo sapiens, UniProt P00519, T315I); test: KINOMEscan competition binding assay; settings: LL6 at 10 μM; read-out: Percent Control
T2 construct: purchased DiscoverX KINOMEscan
Experimental: as §1

ABL1-nonphosphorylated = biological target: T3, ABL1-nonphosphorylated (Homo sapiens, UniProt P00519); test: KINOMEscan competition binding assay; settings: LL6 at 10 μM; read-out: Percent Control
T3 construct: purchased DiscoverX KINOMEscan
Experimental: as §1

ABL1-phosphorylated = biological target: T4, ABL1-phosphorylated (Homo sapiens, UniProt P00519); test: KINOMEscan competition binding assay; settings: LL6 at 10 μM; read-out: Percent Control
T4 construct: purchased DiscoverX KINOMEscan
Experimental: as §1

ACVR1B = biological target: T5, ACVR1B (Homo sapiens, UniProt P36896); test: KINOMEscan competition binding assay; settings: LL6 at 10 μM; read-out: Percent Control
T5 construct: purchased DiscoverX KINOMEscan
T5 sequence (P36896 24-505): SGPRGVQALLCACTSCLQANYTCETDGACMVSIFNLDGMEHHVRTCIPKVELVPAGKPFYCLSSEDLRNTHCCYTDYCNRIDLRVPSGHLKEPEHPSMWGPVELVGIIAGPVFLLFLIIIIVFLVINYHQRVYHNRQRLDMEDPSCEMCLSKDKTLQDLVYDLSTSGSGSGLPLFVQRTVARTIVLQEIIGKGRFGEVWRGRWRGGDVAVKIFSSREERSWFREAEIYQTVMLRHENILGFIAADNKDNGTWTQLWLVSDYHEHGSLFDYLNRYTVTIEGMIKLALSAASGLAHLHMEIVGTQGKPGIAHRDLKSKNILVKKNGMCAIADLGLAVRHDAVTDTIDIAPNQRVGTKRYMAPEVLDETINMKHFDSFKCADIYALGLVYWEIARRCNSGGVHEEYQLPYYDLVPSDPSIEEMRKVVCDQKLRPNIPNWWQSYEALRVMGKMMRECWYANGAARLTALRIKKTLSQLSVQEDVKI
Experimental: as §1

ADCK3 = biological target: T6, ADCK3 (Homo sapiens, UniProt Q8NI60); test: KINOMEscan competition binding assay; settings: LL6 at 10 μM; read-out: Percent Control
T6 construct: purchased DiscoverX KINOMEscan
T6 sequence (Q8NI60 163-647): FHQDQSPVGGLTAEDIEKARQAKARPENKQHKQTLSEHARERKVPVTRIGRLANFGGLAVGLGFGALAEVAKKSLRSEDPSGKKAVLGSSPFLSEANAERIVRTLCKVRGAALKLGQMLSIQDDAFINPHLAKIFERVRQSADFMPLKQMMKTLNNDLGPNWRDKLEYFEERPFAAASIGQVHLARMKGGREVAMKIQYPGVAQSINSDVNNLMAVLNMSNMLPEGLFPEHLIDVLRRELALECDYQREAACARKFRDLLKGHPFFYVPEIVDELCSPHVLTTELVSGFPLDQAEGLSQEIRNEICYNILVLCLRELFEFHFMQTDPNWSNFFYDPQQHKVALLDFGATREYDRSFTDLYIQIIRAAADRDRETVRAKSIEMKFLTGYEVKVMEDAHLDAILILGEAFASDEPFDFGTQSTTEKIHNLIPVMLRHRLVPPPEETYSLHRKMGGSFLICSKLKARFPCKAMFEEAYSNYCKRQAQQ
Experimental: as §1

AKT1 = biological target: T7, AKT1 (Homo sapiens, UniProt P31749); test: KINOMEscan competition binding assay; settings: LL6 at 10 μM; read-out: Percent Control
T7 construct: purchased DiscoverX KINOMEscan
T7 sequence (P31749 whole entry): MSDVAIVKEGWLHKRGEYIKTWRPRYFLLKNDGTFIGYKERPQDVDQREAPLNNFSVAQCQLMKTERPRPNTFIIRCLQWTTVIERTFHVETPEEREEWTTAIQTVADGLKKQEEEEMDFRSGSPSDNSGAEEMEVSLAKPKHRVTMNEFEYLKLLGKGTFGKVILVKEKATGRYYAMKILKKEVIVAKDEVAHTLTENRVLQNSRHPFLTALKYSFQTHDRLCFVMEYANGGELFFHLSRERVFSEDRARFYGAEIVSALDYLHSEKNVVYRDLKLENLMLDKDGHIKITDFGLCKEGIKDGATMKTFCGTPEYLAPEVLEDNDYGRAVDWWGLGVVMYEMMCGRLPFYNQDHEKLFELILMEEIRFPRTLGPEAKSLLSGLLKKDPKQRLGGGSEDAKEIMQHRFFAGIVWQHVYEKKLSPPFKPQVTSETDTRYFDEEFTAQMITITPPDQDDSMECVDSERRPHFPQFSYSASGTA
Experimental: as §1

AKT2 = biological target: T8, AKT2 (Homo sapiens, UniProt P31751); test: KINOMEscan competition binding assay; settings: LL6 at 10 μM; read-out: Percent Control
T8 construct: purchased DiscoverX KINOMEscan
T8 sequence (P31751 whole entry): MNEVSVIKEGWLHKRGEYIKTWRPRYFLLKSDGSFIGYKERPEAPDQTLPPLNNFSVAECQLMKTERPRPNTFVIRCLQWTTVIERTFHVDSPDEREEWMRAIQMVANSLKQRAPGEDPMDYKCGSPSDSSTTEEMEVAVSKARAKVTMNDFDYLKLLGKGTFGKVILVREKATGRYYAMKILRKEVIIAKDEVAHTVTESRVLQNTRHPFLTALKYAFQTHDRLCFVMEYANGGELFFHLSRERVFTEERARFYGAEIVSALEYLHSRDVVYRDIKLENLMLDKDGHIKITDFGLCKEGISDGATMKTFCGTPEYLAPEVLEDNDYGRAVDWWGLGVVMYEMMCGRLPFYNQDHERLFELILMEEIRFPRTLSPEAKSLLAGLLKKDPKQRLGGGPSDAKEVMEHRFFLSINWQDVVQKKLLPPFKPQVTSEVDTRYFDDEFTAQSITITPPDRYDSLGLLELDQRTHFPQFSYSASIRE
Experimental: as §1

AURKB = biological target: T9, AURKB (Homo sapiens, UniProt Q96GD4); test: KINOMEscan competition binding assay; settings: LL6 at 10 μM; read-out: Percent Control
T9 construct: purchased DiscoverX KINOMEscan
T9 sequence (Q96GD4 whole entry): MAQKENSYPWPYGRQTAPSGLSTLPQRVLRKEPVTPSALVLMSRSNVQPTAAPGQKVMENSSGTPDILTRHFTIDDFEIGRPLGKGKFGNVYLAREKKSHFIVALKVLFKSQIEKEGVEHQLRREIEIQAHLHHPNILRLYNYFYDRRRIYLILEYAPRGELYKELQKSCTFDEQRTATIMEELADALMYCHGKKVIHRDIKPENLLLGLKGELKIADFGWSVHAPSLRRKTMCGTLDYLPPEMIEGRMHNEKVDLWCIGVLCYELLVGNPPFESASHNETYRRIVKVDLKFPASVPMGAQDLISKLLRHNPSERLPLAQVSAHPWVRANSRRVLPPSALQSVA
Experimental: as §1

Water solubility = assay type: physicochemical

In the case of `Nc1ncnc2c1c(-c1ccc(Cl)cc1)nn2CCn1cc(COc2ccc(Nc3nccc(Nc4cnc5ccccc5c4)n3)cc2)nn1` [LL6], the IC50 (H1299/PmR cells) is reported as 1620 nM, the “tumor volume and burden” value ([1]; 80 mg/kg for 8 weeks) is reported as “Substantial decreases” and the “lung tumor nodules (multiplicity)” value ([1]; 80 mg/kg for 8 weeks, especially nodules > 1 mm^3) is reported as “significantly decreased”. The body weight ([1]; 80 mg/kg for 8 weeks, vs vehicle) was “no detectable difference”, the “levels of pIGF-1R, pSrc, and pAXL in lung tumors” value ([1]; immunohistochemistry, 80 mg/kg, vs vehicle) was “significantly decreased levels” and the remaining binding at 10 µM [2] was 92%. It also gave a remaining binding at 10 µM [3] of 100%, a remaining binding at 10 µM (ABL1-nonphosphorylated) of 61% and a remaining binding at 10 µM (ABL1-phosphorylated) of 62%. It also gave a remaining binding at 10 µM (ACVR1B) of 50%, a remaining binding at 10 µM (ADCK3) of 67% and a remaining binding at 10 µM (AKT1) of 100%. The remaining binding at 10 µM (AKT2) was 77%, the remaining binding at 10 µM (AURKB) was 55% and the water solubility (Water solubility) was “poor”.

— paper PMC7778606, “Development of the phenylpyrazolo[3,4-d]pyrimidine-based, insulin-like growth factor receptor/Src/AXL-targeting small molecule kinase inhibitor” (Theranostics, 2021)
